What was measured:
[1] = Solubility of FK 235 in water; assay type: physicochemical
[2] = fasting state; S.E. 0.7 min.; cited from earlier work

With COC(=O)C1=C(C#N)NC(C)=C(C(=O)OC(C)C)C1c1cccc([N+](=O)[O-])c1 (centres unmarked) [FK 235, Isopropyl 6-cyano-5-methoxycarbonyl-2-methyl-4-(3-nitrophenyl)-1,4-dihydropyridine-3-carboxylate] the solubility [1] was < 2 µg/mL.
In the case of O [water], the “half-time of the passage of fluid through pylorus” value [2] is listed as 13.1 min.

From US4690822A, “Novel drug carrier and pharmaceutical preparation comprising the same” (Fujisawa Pharmaceutical Co., Ltd., priority 1985, dated 1987)
